From article PMC9516332 (Frontiers in Oncology, 2022)

Legend:
MEK1 = MEK1 (Homo sapiens, UniProt Q02750); assay: Enzyme-linked immunosorbent assay (ELISA) of enzymatic activity, IC50; assay type: biochemical
MEK2 = MEK2 (Homo sapiens, UniProt P36507); assay: as above; assay type: biochemical
[1] = target: panel of 255 wild-type kinases (Homo sapiens, UniProt P06493); conditions: CDC2/CycB1 kinase assay; 1 µmol/L single concentration; ref DOI: 10.1158/1535-7163.MCT-18-0877; cited from earlier work
[2] = target: panel of 255 wild-type kinases (Homo sapiens, UniProt P49841); conditions: kinase GSK3β; 1 µmol/L single concentration; ref DOI: 10.1158/1535-7163.MCT-18-0877; cited from earlier work
[3] = target: panel of 255 wild-type kinases (Homo sapiens, UniProt P51451); conditions: BLK kinase assay; 1 µmol/L single concentration; ref DOI: 10.1158/1535-7163.MCT-18-0877; cited from earlier work
[4] = target: T1, panel of 255 wild-type kinases (Homo sapiens, UniProt P51955); conditions: NEK2; 1 µmol/L single concentration; ref DOI: 10.1158/1535-7163.MCT-18-0877; cited from earlier work
T1 sequence (P51955 1-445): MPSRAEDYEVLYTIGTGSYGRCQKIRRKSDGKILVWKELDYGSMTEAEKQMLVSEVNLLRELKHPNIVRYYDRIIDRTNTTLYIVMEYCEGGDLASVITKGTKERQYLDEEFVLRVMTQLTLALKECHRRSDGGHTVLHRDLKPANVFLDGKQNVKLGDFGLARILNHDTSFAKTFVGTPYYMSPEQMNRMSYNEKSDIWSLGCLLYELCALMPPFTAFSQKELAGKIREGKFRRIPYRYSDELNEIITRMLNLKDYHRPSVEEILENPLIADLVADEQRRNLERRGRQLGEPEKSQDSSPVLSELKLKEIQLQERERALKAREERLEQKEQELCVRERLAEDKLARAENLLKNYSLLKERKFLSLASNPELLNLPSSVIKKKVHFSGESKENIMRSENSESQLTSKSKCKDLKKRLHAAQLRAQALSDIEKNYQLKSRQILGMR

[5] = target: panel of 255 wild-type kinases (Homo sapiens, UniProt Q00534); conditions: CDK6/CycD3 kinase assay; 1 µmol/L single concentration; ref DOI: 10.1158/1535-7163.MCT-18-0877; cited from earlier work
[6] = system: EGFR double mutants p.ex19del/T790M and p.L858R/T790M; assay: Biochemical kinase assays with EGFR mutants
EGFR-mutant cell lines = assay: Cell viability assay, EGFR-mutant versus EGFR wild-type cell lines; assay type: cell-based; conditions: on average; MANOVA
EGFR = target: T2, EGFR (Homo sapiens, UniProt P00533); assay: Biochemical kinase assay (MSA), IC50
T2 construct: purchased Carna Biosciences (only by web pointer)

[7] = target: panel of 255 wild-type kinases (Homo sapiens, UniProt Q92918); assay: Kinase panel profiling at 1 µmol/L (MSA or IMAP), percentage inhibition; assay type: biochemical; conditions: kinase HPK1; 1 µmol/L single concentration; read-out: %-inhibition at 1 µmol/L, HPK1
BRK = target: T3, BRK (Homo sapiens, UniProt Q13882); assay: Biochemical kinase assay (MSA), IC50
T3 construct: purchased Carna Biosciences (only by web pointer)

[8] = system: ERBB2-amplified cell lines; assay: Cell viability assay, ERBB2-amplified versus non-amplified cell lines; assay type: cell-based; conditions: MANOVA
Experimental: The effect of compounds on cell viability was determined by measuring intracellular ATP content as an indirect readout of cell number ([15]). […] A vehicle-treated control (0.4% (v/v) DMSO) was included in quadruplicate on the same assay plate to determine maximum cell growth. The final DMSO concentration was 0.4% (v/v) in all wells. After incubation for another 72 hours, ATP content in each well was measured as described previously. […] When the cell doubling deviated > 2-fold from the historic doubling as determined in multiple independent experiments, the experiment was invalidated and repeated. […] IC50 values of kinase inhibitors were calculated by fitting a 4-parameter logistic curve to the percentage viability values using IDBS XLfit5 (IDBS, Guildford, United Kingdom). […] . For some compounds, biphasic curves were measured in one or more cell lines, indicating a dual mechanism of action in these cell lines ([29]). […] For all bioinformatic analyses, ^10log(IC50 [nmol/L]) values were used.
Cell lines were classified as having an alteration in a specific cancer gene if at least one allele was altered by point mutation, insertion, deletion, fusion, or amplification. The mutation, fusion, and amplification status of the cell lines was retrieved from the COSMIC cell lines project (version 80) ([23]), Cancer Cell Line Encyclopedia (CCLE), DepMap (version 22Q1) ([16]), and Cellosaurus ([30]) databases. In order to ensure that genomic alterations included in subsequent analyses were relevant to cancer growth and drug response, mutations were only included when they were either reported as a hotspot mutation in Cancer Hotspots ([31]), described as oncogenic and gain-of-function in OncoKB or JAX CKB, or described as pathogenic in the literature. […] J82 was therefore annotated as FGFR3 wild-type.
All statistical analyses were performed in R (version 4.1.2), unless otherwise indicated. A two-sided Mann-Whitney test was performed for two-group comparisons. […] . Multivariate analysis of variance (MANOVA) was performed for multi-group comparison.

## Cn1cnc2c(F)c(Nc3ccc(Br)cc3F)c(C(=O)NOCCO)cc21 [binimetinib]
MEK1
  IC50: 0.503 µM
MEK2
  IC50: > 1 µM

## O=C(c1ccc(F)c(F)c1Nc1ccc(I)cc1F)N1CC(O)([C@@H]2CCCCN2)C1 [cobimetinib]
MEK1
  IC50: 0.061 µM
MEK2
  IC50: 0.19 µM
[1]
  %-inhibition CDC2/CycB1: -0.108%
[2]
  %-inhibition at 1 µmol/L, GSK3β: -2.44%
[3]
  %-inhibition BLK: 10%
[4]
  %-inhibition, NEK2: 6.62%
[5]
  %-inhibition CDK6/CycD3: 0.129%

## COc1cc2ncnc(Nc3ccc(F)c(Cl)c3)c2cc1NC(=O)/C=C/CN1CCCCC1 [dacomitinib]
[6]
  lower potency on double mutants (p.T790M plus sensitizing mutation) than on wild-type EGFR and sensitizing mutants: 30 fold
EGFR-mutant cell lines
  lower IC50 (higher potency) in EGFR-mutant compared to EGFR wild-type cell lines: about 110 fold

## Cc1cc(Nc2ncnc3ccc(NC4=NC(C)(C)CO4)cc23)ccc1Oc1ccn2ncnc2c1 [tucatinib]
EGFR
  IC50: 0.0067 µM
[7]
  inhibition at 1 µM: 4%

## C=CC(=O)N1CCC([C@@H]2CCNc3c(C(N)=O)c(-c4ccc(Oc5ccccc5)cc4)nn32)CC1 [zanubrutinib]
BRK
  IC50: 0.018 µM
[7]
  inhibition at 1 µM: 1.75%
EGFR-mutant cell lines
  lower IC50 (higher potency) in EGFR-mutant compared to EGFR wild-type cell lines: 8 fold
[8]
  preferential targeting of ERBB2-amplified versus non-amplified cell lines: 45 fold
